Legend:
Type in all cases: biochemical
Pim2 [1] = molecular target: T1, Pim2 (Homo sapiens, UniProt Q9P1W9); test: Pim-2 kinase assay (Pim enzyme assays, Example A); settings: 1 mM ATP; read-out: Pim2 IC50
T1 construct: purchased Invitrogen PV3649
Procedure: (§1) Pim-2 kinase assay—20 μL reactions were run in white 384 well polystyrene plates dotted with 0.8 μL compound/DMSO in the assay buffer (50 mM Tris, pH 7.5, 0.01% Tween-20, 5 mM mgCl2, 0.01% BSA, 5 mM DTT), containing 0.05 μM Fluorescein-labeled CREBtide peptide substrate (Invitrogen PV3508), 1 mM ATP, and 1 nM enzyme (Invitrogen PV3649) for 2 h at 25° C. Reactions were stopped by addition of 10 μL TR-FRET Dilution Buffer (Invitrogen PV3574) with 30 mM EDTA and 1.5 nM LanthaScreen Tb-CREB pSer133 antibody (Invitrogen PV3566). After 30 min. incubation at room temperature, plates were read on a PHERAstar FS plate reader (BMG Labtech).

Pim2 [2] = molecular target: T1, Pim2; test: Pim2 assay analogous to Example A performed under Km ATP conditions; settings: Km ATP conditions rather than 1 mM ATP
Procedure: as §1
Although the above in vitro assays are conducted at 1 mM ATP compounds can also be evaluated for potency and in vitro activity against PIM targets utilizing Km conditions, where the concentration of ATP is set to the Km value and the assay is more sensitive to PIM inhibition activity.

Pim-3 = molecular target: T2, Pim-3 (Homo sapiens, UniProt Q86V86); test: Pim-3 kinase assay (Pim enzyme assays, Example A); settings: 1 mM ATP; read-out: Pim3 IC50
T2 construct: purchased Millipore 14-738
Procedure: (§2) Pim-1 and Pim-3 kinase assays-20 μL reactions were run in white 384 well polystyrene plates dotted with 0.8 μL compound/DMSO in the assay buffer (50 mM Tris, pH 7.5, 0.01% Tween-20, 5 mM mgCl2, 0.01% BSA, 5 mM DTT), containing 0.05 μM Biotin-labeled BAD peptide substrate (AnaSpec 62269), 1 mM ATP, and […] (Pim-1, Invitrogen PV3503) or […] (Pim-3, Millipore 14-738) enzyme for 1 h at 25° C. Reactions were stopped by addition of 10 μL STOP Buffer (150 mM Tris, pH=7.5, 150 mM NaCl, 75 mM EDTA, 0.01% Tween-20, 0.3% BSA,) supplemented with Phospho-Bad (Ser 12) Antibody (Cell Signaling 9291) diluted 666-fold, and Streptavidin donor beads (PerkinElmer 6760002) along with Protein-A acceptor beads (PerkinElmer 6760137) at 15 μg/mL each. Supplementation of the STOP buffer with beads and stopping the reactions were done under reduced light. Prior to the stopping reactions STOP buffer with beads was preincubated for 1 h in the dark at room temperature. After stopping the reactions, plates were incubated for 1 h in the dark at room temperature before reading on a PHERAstar FS plate reader (BMG Labtech) under reduced light.

Pim-1 = molecular target: T3, Pim-1 (Homo sapiens, UniProt P11309); test: Pim-1 kinase assay (Pim enzyme assays, Example A); settings: 1 mM ATP; read-out: Pim1 IC50
T3 construct: purchased Invitrogen PV3503
Procedure: as §2

T3 sequence (P11309 whole entry): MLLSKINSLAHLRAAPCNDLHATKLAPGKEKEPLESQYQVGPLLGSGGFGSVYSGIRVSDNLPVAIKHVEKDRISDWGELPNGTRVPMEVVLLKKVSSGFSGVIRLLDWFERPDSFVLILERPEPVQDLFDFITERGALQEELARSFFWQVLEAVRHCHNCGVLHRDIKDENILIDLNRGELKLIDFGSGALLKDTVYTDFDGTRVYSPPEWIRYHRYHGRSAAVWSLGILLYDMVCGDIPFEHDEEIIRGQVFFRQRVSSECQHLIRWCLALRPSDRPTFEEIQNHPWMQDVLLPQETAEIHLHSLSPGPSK
T1 sequence (Q9P1W9 whole entry): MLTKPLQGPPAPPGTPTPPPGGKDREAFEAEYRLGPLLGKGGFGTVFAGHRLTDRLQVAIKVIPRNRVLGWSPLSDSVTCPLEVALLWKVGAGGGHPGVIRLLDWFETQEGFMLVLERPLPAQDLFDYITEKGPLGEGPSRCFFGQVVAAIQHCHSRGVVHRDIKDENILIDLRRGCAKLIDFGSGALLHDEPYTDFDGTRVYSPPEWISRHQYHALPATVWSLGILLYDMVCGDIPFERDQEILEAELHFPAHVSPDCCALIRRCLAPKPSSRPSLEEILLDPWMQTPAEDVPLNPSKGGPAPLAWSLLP

IC50 (Pim2 [1]) [nM] | IC50 (Pim2 [2]) [nM] | IC50 (Pim-3) [nM] | IC50 (Pim-1) [nM] | Compound
> 2000 | 100 to 1000 | > 40 | > 40 | CCc1ccc2cc(N)c(C(=O)Nc3cnc4c(c3N3CCC[C@H](N)C3)CCC4O)nc2c1 (single isomer, unassigned) [22 isomer 1]
> 2000 | < 100 | > 40 | > 40 | NC(=O)c1ccccc1-c1ccc2cc(N)c(C(=O)Nc3cnccc3N3CCC[C@H](N)C3)nc2c1 [Example 6, 3-Amino-7-[2-(aminocarbonyl)phenyl]-N-{4-[(3S)-3-aminopiperidin-1-yl]pyridin-3-yl}quinoline-2-carboxamide]
100 to 1000 | – | ≤ 100 | ≤ 100 | C[C@@H]1C[C@H](N)CN(c2ccncc2NC(=O)c2nc3cc(N4CCOCC4=O)ccc3cc2N)C1 [Example 50, 3-Amino-N-{4-[(3S,5R)-3-amino-5-methylpiperidin-1-yl]pyridin-3-yl}-7-(3-oxomorpholin-4-yl)quinoline-2-carboxamide]
1000 to 10000 | – | ≤ 100 | ≤ 100 | C[C@H]1CN(c2ccncc2NC(=O)c2nc3cc(N4CCOCC4=O)ccc3cc2N)C[C@@H](N)[C@@H]1O [Example 51, 3-Amino-N-{4-[(3R,4R,5S)-3-amino-4-hydroxy-5-methylpiperidin-1-yl]pyridin-3-yl}-7-(3-oxomorpholin-4-yl)quinoline-2-carboxamide]
> 2000 | – | ≤ 100 | ≤ 100 | C[C@H]1CN(c2ccncc2NC(=O)c2nc3cc(N4CCN(C)C(=O)C4)ccc3cc2N)C[C@@H](N)[C@H]1n1ccnn1 [Example 52, 3-Amino-N-{4-[(3R,4S,5S)-3-amino-5-methyl-4-(1H-1,2,3-triazol-1-yl)piperidin-1-yl]pyridin-3-yl}-7-(4-methyl-3-oxopiperazin-1-yl)quinoline-2-carboxamide]
1000 to 10000 | – | ≤ 100 | ≤ 100 | C[C@H]1CN(c2ccncc2NC(=O)c2nc3cc(C4CCOCC4)ccc3cc2N)C[C@@H](N)[C@H]1n1ccnn1 [Example 53, 3-Amino-N-{4-[(3R,4S,5S)-3-amino-5-methyl-4-(1H-1,2,3-triazol-1-yl)piperidin-1-yl]pyridin-3-yl}-7-(tetrahydro-2H-pyran-4-yl)quinoline-2-carboxamide]
> 2000 | – | ≤ 100 | ≤ 100 | C[C@H]1CN(c2ccncc2NC(=O)c2nc3cc(N4CCN(C)CC4)ccc3cc2N)C[C@@H](N)[C@H]1n1ccnn1 [Example 54, 3-Amino-N-{4-[(3R,4S,5S)-3-amino-5-methyl-4-(1H-1,2,3-triazol-1-yl)piperidin-1-yl]pyridin-3-yl}-7-(4-methylpiperazin-1-yl)quinoline-2-carboxamide]
> 2000 | – | ≤ 100 | ≤ 100 | C[C@H]1CN(c2ccncc2NC(=O)c2nc3cc(N4CCOCC4)ccc3cc2N)C[C@@H](N)[C@H]1n1ccnn1 [Example 55, 3-Amino-N-{4-[(3R,4S,5S)-3-amino-5-methyl-4-(1H-1,2,3-triazol-1-yl)piperidin-1-yl]pyridin-3-yl}-7-morpholin-4-ylquinoline-2-carboxamide]
1000 to 10000 | – | ≤ 100 | ≤ 100 | C[C@H]1CN(c2ccncc2NC(=O)c2nc3cc(C4CCN(C)CC4)ccc3cc2N)C[C@@H](N)[C@H]1n1ccnn1 [Example 56, 3-Amino-N-{4-[(3R,4S,5S)-3-amino-5-methyl-4-(1H-1,2,3-triazol-1-yl)piperidin-1-yl]pyridin-3-yl}-7-(1-methylpiperidin-4-yl)quinoline-2-carboxamide]
100 to 1000 | – | ≤ 100 | ≤ 100 | CCc1ccc2cc(N)c(C(=O)Nc3cnccc3N3C[C@@H](N)[C@@H](n4ccnn4)[C@@H](C)C3)nc2c1 [Example 57, 3-Amino-N-{4-[(3R,4S,5S)-3-amino-5-methyl-4-(1H-1,2,3-triazol-1-yl)piperidin-1-yl]pyridin-3-yl}-7-ethylquinoline-2-carboxamide]
100 to 1000 | – | ≤ 100 | ≤ 100 | CCc1ccc2cc(N)c(C(=O)Nc3cnccc3N3C[C@@H](N)[C@@H](NC(=O)OC)[C@@H](C)C3)nc2c1 [Example 58, Methyl [(3R,4S,5S)-3-amino-1-(3-{[(3-amino-7-ethylquinolin-2-yl)carbonyl]amino}pyridin-4-yl)-5-methylpiperidin-4-yl]carbamate]
1000 to 10000 | – | ≤ 100 | ≤ 100 | COC(=O)N[C@@H]1[C@H](N)CN(c2ccncc2NC(=O)c2nc3cc(N4CCOCC4)ccc3cc2N)C[C@@H]1C [Example 59, Methyl [(3R,4S,5S)-3-amino-1-(3-{[(3-amino-7-morpholin-4-ylquinolin-2-yl)carbonyl]amino}pyridin-4-yl)-5-methylpiperidin-4-yl]carbamate]
1000 to 10000 | – | ≤ 100 | ≤ 100 | COC(=O)N[C@@H]1[C@H](N)CN(c2ccncc2NC(=O)c2nc3cc(N4CCN(C)CC4)ccc3cc2N)C[C@@H]1C [Example 60, Methyl {(3R,4S,5S)-3-amino-1-[3-({[3-amino-7-(4-methylpiperazin-1-yl)quinolin-2-yl]carbonyl}amino)pyridin-4-yl]-5-methylpiperidin-4-yl}carbamate]
100 to 1000 | – | ≤ 100 | ≤ 100 | COC(=O)N[C@@H]1[C@H](N)CN(c2ccncc2NC(=O)c2nc3cc(C4CCOCC4)ccc3cc2N)C[C@@H]1C [Example 61, Methyl {(3R,4S,5S)-3-amino-1-[3-({[3-amino-7-(tetrahydro-2H-pyran-4-yl)quinolin-2-yl]carbonyl}amino)pyridin-4-yl]-5-methylpiperidin-4-yl}carbamate]
1000 to 10000 | – | ≤ 100 | ≤ 100 | COC(=O)N[C@@H]1[C@H](N)CN(c2ccncc2NC(=O)c2nc3cc(C4CCN(C)CC4)ccc3cc2N)C[C@@H]1C [Example 62, Methyl {(3R,4S,5S)-3-amino-1-[3-({[3-amino-7-(1-methylpiperidin-4-yl)quinolin-2-yl]carbonyl}amino)pyridin-4-yl]-5-methylpiperidin-4-yl}carbamate]
